Source: the NIST ThermoML archive (doi:10.1021/je400134d)
± gives the expanded uncertainty stated by the source.

Experiment: xn = mol fraction of the nth substance listed
Details: 100 kPa, Liquid; for speed of sound: Pulse-echo method; for mass density: Vibrating tube method

For CNc1ccccc1 [N-methylaniline] + CCCCCCC, the speed of sound (293.15 K, x1 = 0.054) was 1164.1 ± 1.4 m/s, the speed of sound (293.15 K, x1 = 0.1084) was 1177.2 ± 1.4 m/s and the speed of sound (293.15 K, x1 = 0.1536) was 1188.4 ± 1.4 m/s. The speed of sound (293.15 K, x1 = 0.2) was 1200 ± 1.5 m/s, the speed of sound (293.15 K, x1 = 0.2556) was 1214.5 ± 1.5 m/s and the speed of sound (293.15 K, x1 = 0.2976) was 1226.1 ± 1.6 m/s. The speed of sound (293.15 K, x1 = 0.3473) was 1240.6 ± 1.6 m/s, the speed of sound (293.15 K, x1 = 0.3944) was 1255.2 ± 1.6 m/s and the speed of sound (293.15 K, x1 = 0.4485) was 1273.5 ± 1.7 m/s. For the same compound, the speed of sound (293.15 K, x1 = 0.4953) was 1291 ± 1.8 m/s, the speed of sound (293.15 K, x1 = 0.5355) was 1306.9 ± 1.8 m/s and the speed of sound (293.15 K, x1 = 0.599) was 1335 ± 1.9 m/s. For the same compound, the speed of sound (293.15 K, x1 = 0.6436) was 1356.6 ± 1.9 m/s, the speed of sound (293.15 K, x1 = 0.7024) was 1387.7 ± 2 m/s and the speed of sound (293.15 K, x1 = 0.7457) was 1412.5 ± 2 m/s. The speed of sound (293.15 K, x1 = 0.7858) was 1436.7 ± 2.1 m/s, the speed of sound (293.15 K, x1 = 0.8459) was 1474.7 ± 2.2 m/s and the speed of sound (293.15 K, x1 = 0.8952) was 1507.9 ± 2.2 m/s. The speed of sound (293.15 K, x1 = 0.9491) was 1545.5 ± 2.3 m/s, the mass density (293.15 K, x1 = 0.054) was 695.999 ± 0.25 kg/m3 and the mass density (293.15 K, x1 = 0.1084) was 708.778 ± 0.26 kg/m3. It also gave a mass density (293.15 K, x1 = 0.1536) of 719.814 ± 0.27 kg/m3, a mass density (293.15 K, x1 = 0.2) of 731.341 ± 0.27 kg/m3 and a mass density (293.15 K, x1 = 0.2556) of 745.704 ± 0.28 kg/m3. The mass density (293.15 K, x1 = 0.2976) was 756.81 ± 0.29 kg/m3, the mass density (293.15 K, x1 = 0.3473) was 770.261 ± 0.3 kg/m3 and the mass density (293.15 K, x1 = 0.3944) was 783.41 ± 0.32 kg/m3. For the same compound, the mass density (293.15 K, x1 = 0.4485) was 798.879 ± 0.34 kg/m3, the mass density (293.15 K, x1 = 0.4953) was 812.615 ± 0.36 kg/m3 and the mass density (293.15 K, x1 = 0.5355) was 824.725 ± 0.38 kg/m3. For the same compound, the mass density (293.15 K, x1 = 0.599) was 844.458 ± 0.41 kg/m3, the mass density (293.15 K, x1 = 0.6436) was 858.711 ± 0.44 kg/m3 and the mass density (293.15 K, x1 = 0.7024) was 878.07 ± 0.49 kg/m3. For the same compound, the mass density (293.15 K, x1 = 0.7457) was 892.769 ± 0.53 kg/m3, the mass density (293.15 K, x1 = 0.7858) was 906.675 ± 0.56 kg/m3 and the mass density (293.15 K, x1 = 0.8459) was 928.153 ± 0.63 kg/m3. The mass density (293.15 K, x1 = 0.8952) was 946.22 ± 0.69 kg/m3, the mass density (293.15 K, x1 = 0.9491) was 966.608 ± 0.76 kg/m3 and the speed of sound (298.15 K, x1 = 0.0577) was 1143.9 ± 1.4 m/s. It also gave a speed of sound (298.15 K, x1 = 0.1072) of 1156.2 ± 1.4 m/s, a speed of sound (298.15 K, x1 = 0.1473) of 1166.3 ± 1.4 m/s and a speed of sound (298.15 K, x1 = 0.2055) of 1181.4 ± 1.5 m/s. For the same compound, the speed of sound (298.15 K, x1 = 0.2595) was 1193.9 ± 1.5 m/s, the speed of sound (298.15 K, x1 = 0.3033) was 1208.3 ± 1.6 m/s and the speed of sound (298.15 K, x1 = 0.3401) was 1219.2 ± 1.6 m/s. The speed of sound (298.15 K, x1 = 0.3955) was 1236.7 ± 1.6 m/s, the speed of sound (298.15 K, x1 = 0.4559) was 1257.6 ± 1.7 m/s and the speed of sound (298.15 K, x1 = 0.503) was 1275.5 ± 1.8 m/s. It also gave a speed of sound (298.15 K, x1 = 0.5431) of 1291.9 ± 1.8 m/s, a speed of sound (298.15 K, x1 = 0.5956) of 1315.3 ± 1.9 m/s and a speed of sound (298.15 K, x1 = 0.6441) of 1338.8 ± 1.9 m/s. It also gave a speed of sound (298.15 K, x1 = 0.6995) of 1368.1 ± 2 m/s, a speed of sound (298.15 K, x1 = 0.7491) of 1396.2 ± 2 m/s and a speed of sound (298.15 K, x1 = 0.7964) of 1425.1 ± 2.1 m/s. It also gave a speed of sound (298.15 K, x1 = 0.8446) of 1455.9 ± 2.2 m/s, a speed of sound (298.15 K, x1 = 0.8949) of 1489.6 ± 2.2 m/s and a speed of sound (298.15 K, x1 = 0.9465) of 1525.6 ± 2.3 m/s. The mass density (298.15 K, x1 = 0.0577) was 692.58 ± 0.25 kg/m3, the mass density (298.15 K, x1 = 0.1072) was 704.27 ± 0.26 kg/m3 and the mass density (298.15 K, x1 = 0.1473) was 713.999 ± 0.26 kg/m3. The mass density (298.15 K, x1 = 0.2055) was 728.558 ± 0.27 kg/m3, the mass density (298.15 K, x1 = 0.2595) was 742.491 ± 0.28 kg/m3 and the mass density (298.15 K, x1 = 0.3033) was 754.107 ± 0.29 kg/m3. It also gave a mass density (298.15 K, x1 = 0.3401) of 764.024 ± 0.3 kg/m3, a mass density (298.15 K, x1 = 0.3955) of 779.471 ± 0.32 kg/m3 and a mass density (298.15 K, x1 = 0.4559) of 796.765 ± 0.34 kg/m3. It also gave a mass density (298.15 K, x1 = 0.503) of 810.692 ± 0.36 kg/m3, a mass density (298.15 K, x1 = 0.5431) of 822.843 ± 0.38 kg/m3 and a mass density (298.15 K, x1 = 0.5956) of 839.178 ± 0.41 kg/m3. It also gave a mass density (298.15 K, x1 = 0.6441) of 854.671 ± 0.44 kg/m3, a mass density (298.15 K, x1 = 0.6995) of 872.931 ± 0.48 kg/m3 and a mass density (298.15 K, x1 = 0.7491) of 889.715 ± 0.52 kg/m3. It also gave a mass density (298.15 K, x1 = 0.7964) of 906.279 ± 0.57 kg/m3, a mass density (298.15 K, x1 = 0.8446) of 923.55 ± 0.62 kg/m3 and a mass density (298.15 K, x1 = 0.8949) of 942.036 ± 0.68 kg/m3. It also gave a mass density (298.15 K, x1 = 0.9465) of 961.528 ± 0.75 kg/m3, a speed of sound (303.15 K, x1 = 0.0615) of 1124.9 ± 1.4 m/s and a speed of sound (303.15 K, x1 = 0.1111) of 1137.5 ± 1.4 m/s. The speed of sound (303.15 K, x1 = 0.1548) was 1148.8 ± 1.4 m/s, the speed of sound (303.15 K, x1 = 0.2069) was 1162.6 ± 1.5 m/s and the speed of sound (303.15 K, x1 = 0.2501) was 1174.4 ± 1.5 m/s. The speed of sound (303.15 K, x1 = 0.2964) was 1187.5 ± 1.5 m/s, the speed of sound (303.15 K, x1 = 0.348) was 1203.2 ± 1.6 m/s and the speed of sound (303.15 K, x1 = 0.3979) was 1219.2 ± 1.6 m/s. It also gave a speed of sound (303.15 K, x1 = 0.4513) of 1238 ± 1.7 m/s, a speed of sound (303.15 K, x1 = 0.5003) of 1256.5 ± 1.8 m/s and a speed of sound (303.15 K, x1 = 0.5583) of 1280.8 ± 1.8 m/s. It also gave a speed of sound (303.15 K, x1 = 0.5988) of 1299.2 ± 1.9 m/s, a speed of sound (303.15 K, x1 = 0.647) of 1322.6 ± 1.9 m/s and a speed of sound (303.15 K, x1 = 0.7026) of 1351.9 ± 2 m/s. It also gave a speed of sound (303.15 K, x1 = 0.7475) of 1377.4 ± 2 m/s, a speed of sound (303.15 K, x1 = 0.7954) of 1406.3 ± 2.1 m/s and a speed of sound (303.15 K, x1 = 0.8446) of 1437.5 ± 2.2 m/s. The speed of sound (303.15 K, x1 = 0.8917) was 1468.8 ± 2.2 m/s, the speed of sound (303.15 K, x1 = 0.9404) was 1502.4 ± 2.3 m/s and the mass density (303.15 K, x1 = 0.0615) was 689.386 ± 0.25 kg/m3. The mass density (303.15 K, x1 = 0.1111) was 701.082 ± 0.25 kg/m3, the mass density (303.15 K, x1 = 0.1548) was 711.723 ± 0.26 kg/m3 and the mass density (303.15 K, x1 = 0.2069) was 724.76 ± 0.27 kg/m3. The mass density (303.15 K, x1 = 0.2501) was 735.88 ± 0.28 kg/m3, the mass density (303.15 K, x1 = 0.2964) was 748.035 ± 0.28 kg/m3 and the mass density (303.15 K, x1 = 0.348) was 762.057 ± 0.3 kg/m3. It also gave a mass density (303.15 K, x1 = 0.3979) of 775.964 ± 0.31 kg/m3, a mass density (303.15 K, x1 = 0.4513) of 791.356 ± 0.33 kg/m3 and a mass density (303.15 K, x1 = 0.5003) of 805.793 ± 0.35 kg/m3. It also gave a mass density (303.15 K, x1 = 0.5583) of 823.48 ± 0.38 kg/m3, a mass density (303.15 K, x1 = 0.5988) of 836.196 ± 0.4 kg/m3 and a mass density (303.15 K, x1 = 0.647) of 851.618 ± 0.43 kg/m3. It also gave a mass density (303.15 K, x1 = 0.7026) of 869.963 ± 0.48 kg/m3, a mass density (303.15 K, x1 = 0.7475) of 885.221 ± 0.52 kg/m3 and a mass density (303.15 K, x1 = 0.7954) of 901.919 ± 0.56 kg/m3. The mass density (303.15 K, x1 = 0.8446) was 919.525 ± 0.62 kg/m3, the mass density (303.15 K, x1 = 0.8917) was 936.846 ± 0.67 kg/m3 and the mass density (303.15 K, x1 = 0.9404) was 955.244 ± 0.74 kg/m3.
